Structures can show the parent of a compound that is named as a salt. Where two headings read alike, the source gives them in different places.
Tests used:
Hela = test: In vitro cell growth inhibition assay (MTT); format: cell-based, human; settings: 48 h, read-out: IC50 Hela
Method in brief: (§1)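 5000 cells/well, overnight attachment; compounds 48 h (vehicle 0.2% DMSO); MTT 0.5 mg/mL, 4 h, 37° C; formazan in DMSO; A540. IC50 from growth inhibition rates.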

MDA-MB-231 = test: In vitro cell growth inhibition assay (MTT); format: cell-based, human; settings: read-out: IC50 MDA-MB-231
Method in brief: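 Following overnight adherence of 5000 cells per well, compounds or 0.2% DMSO were applied for 48 h. Medium was then swapped for 0.5 mg/mL MTT medium (4 h, 37° C), crystals dissolved in DMSO, and plates read at 540 nm.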

A2780 = test: In vitro cell growth inhibition assay (MTT); format: cell-based, human; settings: read-out: IC50 A2780
Method in brief: as §1

SKOV3 = test: In vitro cell growth inhibition assay (MTT); format: cell-based, human; settings: read-out: IC50 SKOV3
Method in brief: as §1

[1] = Hela human cervical cancer cell line, MTT
[2] = MDA-MB-231 human breast cancer cell line, 48 h, MTT
[3] = A2780 human ovarian cancer cell line, 48 h, MTT
[4] = SK-OV-3, SKOV-3 human ovarian cancer cell line, 48 h, MTT

Compound C=C1C(=O)N(c2cc(OC)c(OC)c(OC)c2)[C@H]1c1ccc(OC)c(OS(=O)(=O)c2ccc(OC)c(OC)c2)c1 (as salt: benzenesulfonate) [Compound 33, (S)-2-methoxy-5-(3-methylene-4-oxo-1-(3,4,5-trimethoxyphenyl)azetidin-2-yl)phenyl 3,4-dimethoxybenzenesulfonate] has a melting point of 70 to 71 °C.
For C=C1C(=O)N(c2cc(OC)c(OC)c(OC)c2)[C@H]1c1ccc(OC)c(OS(=O)(=O)Cc2ccccc2)c1 (as salt: methanesulfonate) [Compound 32, (S)-2-methoxy-5-(3-methylene-4-oxo-1-(3,4,5-trimethoxyphenyl)azetidin-2-yl)phenyl phenylmethanesulfonate], the melting point was 58 to 59 °C.
In the case of C=C1C(=O)N(c2cc(OC)c(OC)c(OC)c2)[C@H]1c1ccc(OC)c(OC)c1 [Compound 2, (S)-4-(3,4-dimethoxyphenyl)-3-methylene-1-(3,4,5-trimethoxyphenyl)azetidin-2-one], the melting point is reported as 138 to 139 °C, the IC50 (Hela; [1]) is reported as 3.16 µM and the IC50 (MDA-MB-231; [2]) is reported as 1.02 µM. For the same compound, the IC50 (A2780; [3]) was 0.854 µM and the IC50 (SKOV3; [4]) was 2.26 µM.
C=C1C(=O)N(c2cc(OC)c(OC)c(OC)c2)[C@H]1c1ccc(OC)c(OCC)c1 [Compound 3, (S)-4-(3-ethoxy-4-methoxyphenyl)-3-methylene-1-(3,4,5-trimethoxyphenyl)azetidin-2-one] gave a melting point of 92 to 93 °C, an IC50 (Hela; [1]) of 2.03 µM and an IC50 (MDA-MB-231; [2]) of 0.958 µM. For the same compound, the IC50 (A2780; [3]) was 0.854 µM and the IC50 (SKOV3; [4]) was 1.14 µM.
C=C1C(=O)N(c2cc(OC)c(OC)c(OC)c2)[C@H]1c1ccc(OC)c(OCCC)c1 [Compound 4, (S)-4-(4-methoxy-3-propoxyphenyl)-3-methylene-1-(3,4,5-trimethoxyphenyl)azetidin-2-one] gave a melting point of 90 to 91 °C, an IC50 (Hela; [1]) of 6.89 µM and an IC50 (MDA-MB-231; [2]) of 5.62 µM. The IC50 (A2780; [3]) was 3.42 µM and the IC50 (SKOV3; [4]) was 5.26 µM.
Compound C=C1C(=O)N(c2cc(OC)c(OC)c(OC)c2)[C@H]1c1ccc(OC)c(OC(C)C)c1 [Compound 5, (S)-4-(3-isopropoxy-4-methoxyphenyl)-3-methylene-1-(3,4,5-trimethoxyphenyl)azetidin-2-one] has a melting point of 146 to 147 °C, an IC50 (Hela; [1]) of over 20 µM and an IC50 (MDA-MB-231; [2]) of 15.9 µM. The IC50 (A2780; [3]) was 11.3 µM and the IC50 (SKOV3; [4]) was 18 µM.
Compound C=CCOc1cc([C@H]2C(=C)C(=O)N2c2cc(OC)c(OC)c(OC)c2)ccc1OC [Compound 6, (S)-4-(3-(allyloxy)-4-methoxyphenyl)-3-methylene-1-(3,4,5-trimethoxyphenyl)azetidin-2-one] has a melting point of 92 to 93 °C, an IC50 (Hela; [1]) of 1.15 µM and an IC50 (MDA-MB-231; [2]) of 0.883 µM. For the same compound, the IC50 (A2780; [3]) was 1.25 µM and the IC50 (SKOV3; [4]) was 1.48 µM.
In the case of C#CCOc1cc([C@H]2C(=C)C(=O)N2c2cc(OC)c(OC)c(OC)c2)ccc1OC [Compound 7, (S)-4-(4-methoxy-3-(prop-2-yn-1-yloxy)phenyl)-3-methylene-1-(3,4,5-trimethoxyphenyl)azetidin-2-one], the melting point is reported as 106 to 107 °C, the IC50 (Hela; [1]) is reported as 1.05 µM and the IC50 (MDA-MB-231; [2]) is reported as 1.2 µM. It also gave an IC50 (A2780; [3]) of 0.429 µM and an IC50 (SKOV3; [4]) of 0.841 µM.
Compound C=C1C(=O)N(c2cc(OC)c(OC)c(OC)c2)[C@H]1c1ccc(OC)c(OCCCl)c1 [Compound 10, (S)-4-(3-(2-chloroethoxy)-4-methoxyphenyl)-3-methylene-1-(3,4,5-trimethoxyphenyl)azetidin-2-one] has a melting point of 91 to 92 °C, an IC50 (Hela; [1]) of 0.887 µM and an IC50 (MDA-MB-231; [2]) of 0.608 µM. It also gave an IC50 (A2780; [3]) of 0.409 µM and an IC50 (SKOV3; [4]) of 0.864 µM.
Work on C=C1C(=O)N(c2cc(OC)c(OC)c(OC)c2)[C@H]1c1ccc(OC)c(OCCCCl)c1 [Compound 11, (S)-4-(3-(3-chloropropoxy)-4-methoxyphenyl)-3-methylene-1-(3,4,5-trimethoxyphenyl)azetidin-2-one] yielded a melting point of 72 to 73 °C, an IC50 (Hela; [1]) of 6.04 µM and an IC50 (MDA-MB-231; [2]) of 4.15 µM. For the same compound, the IC50 (A2780; [3]) was 2.18 µM and the IC50 (SKOV3; [4]) was 4.07 µM.
Compound C=C1C(=O)N(c2cc(OC)c(OC)c(OC)c2)[C@H]1c1ccc(OC)c(OCCN2CCOCC2)c1 [Compound 15, (S)-4-(4-methoxy-3-(2-morpholinoethoxy)phenyl)-3-methylene-1-(3,4,5-trimethoxyphenyl)azetidin-2-one] has a melting point of 86 to 87 °C, an IC50 (Hela; [1]) of over 10 µM and an IC50 (MDA-MB-231; [2]) of over 10 µM. The IC50 (A2780; [3]) was over 10 µM and the IC50 (SKOV3; [4]) was over 10 µM.
C=C1C(=O)N(c2cc(OC)c(OC)c(OC)c2)[C@H]1c1ccc(OC)c(OC(=O)c2ccccc2)c1 [Compound 18, (S)-2-methoxy-5-(3-methylene-4-oxo-1-(3,4,5-trimethoxyphenyl)azetidin-2-yl)phenyl benzoate] showed a melting point of 151 to 152 °C, an IC50 (Hela; [1]) of 0.386 µM and an IC50 (MDA-MB-231; [2]) of 0.637 µM. For the same compound, the IC50 (A2780; [3]) was 0.287 µM and the IC50 (SKOV3; [4]) was 0.484 µM.
Compound C=C1C(=O)N(c2cc(OC)c(OC)c(OC)c2)[C@H]1c1ccc(OC)c(OC(=O)c2ccc([N+](=O)[O-])cc2)c1 [Compound 19, (S)-2-methoxy-5-(3-methylene-4-oxo-1-(3,4,5-trimethoxyphenyl)azetidin-2-yl)phenyl 4-nitrobenzoate] has a melting point of 88 to 89 °C, an IC50 (Hela; [1]) of 0.102 µM and an IC50 (MDA-MB-231; [2]) of 0.105 µM. For the same compound, the IC50 (A2780; [3]) was 0.055 µM and the IC50 (SKOV3; [4]) was 0.084 µM.
C=C1C(=O)N(c2cc(OC)c(OC)c(OC)c2)[C@H]1c1ccc(OC)c(OC(=O)c2ccc(F)cc2)c1 [Compound 20, (S)-2-methoxy-5-(3-methylene-4-oxo-1-(3,4,5-trimethoxyphenyl)azetidin-2-yl)phenyl 4-fluorobenzoate] showed a melting point of 185 to 186 °C, an IC50 (Hela; Homo sapiens, HeLa) of 0.075 µM and an IC50 (MDA-MB-231; Homo sapiens, MDA-MB-231, 48 h) of 0.223 µM. For the same compound, the IC50 (A2780; Homo sapiens, A2780, 48 h) was 0.169 µM and the IC50 (SKOV3; Homo sapiens, SK-OV-3, 48 h) was 0.114 µM.
For C=C1C(=O)N(c2cc(OC)c(OC)c(OC)c2)[C@H]1c1ccc(OC)c(OC(=O)c2cccnc2)c1 [Compound 22, (S)-2-methoxy-5-(3-methylene-4-oxo-1-(3,4,5-trimethoxyphenyl)azetidin-2-yl)phenyl nicotinate], the melting point was 113 to 114 °C, the IC50 (Hela; [1]) was 0.115 µM and the IC50 (MDA-MB-231; [2]) was 0.151 µM. The IC50 (A2780; [3]) was 0.112 µM and the IC50 (SKOV3; [4]) was 0.075 µM.
For C=C1C(=O)N(c2cc(OC)c(OC)c(OC)c2)[C@H]1c1ccc(OC)c(OC(=O)C2CC2)c1 [Compound 23, (S)-2-methoxy-5-(3-methylene-4-oxo-1-(3,4,5-trimethoxyphenyl)azetidin-2-yl)phenyl cyclopropanecarboxylate], the melting point was 68 to 69 °C, the IC50 (Hela; Homo sapiens, HeLa) was 0.142 µM and the IC50 (MDA-MB-231; Homo sapiens, MDA-MB-231, 48 h) was 0.207 µM. It also gave an IC50 (A2780; Homo sapiens, A2780, 48 h) of 0.129 µM and an IC50 (SKOV3; Homo sapiens, SK-OV-3, 48 h) of 0.108 µM.
Work on C=CC(=O)Oc1cc([C@H]2C(=C)C(=O)N2c2cc(OC)c(OC)c(OC)c2)ccc1OC [Compound 24, (S)-2-methoxy-5-(3-methylene-4-oxo-1-(3,4,5-trimethoxyphenyl)azetidin-2-yl)phenyl acrylate] yielded a melting point of 109 to 110 °C, an IC50 (Hela; [1]) of 0.49 µM and an IC50 (MDA-MB-231; [2]) of 0.565 µM. It also gave an IC50 (A2780; [3]) of 0.328 µM and an IC50 (SKOV3; [4]) of 0.522 µM.
Compound C=C1C(=O)N(c2cc(OC)c(OC)c(OC)c2)[C@H]1c1ccc(OC)c(OC(=O)N2CCOCC2)c1 [Compound 25, (S)-2-methoxy-5-(3-methylene-4-oxo-1-(3,4,5-trimethoxyphenyl)azetidin-2-yl)phenyl morpholine-4-carboxylate] has a melting point of 82 to 83 °C, an IC50 (Hela; [1]) of over 10 µM and an IC50 (MDA-MB-231; [2]) of over 10 µM. It also gave an IC50 (A2780; [3]) of over 10 µM and an IC50 (SKOV3; [4]) of over 10 µM.
For C=C1C(=O)N(c2cc(OC)c(OC)c(OC)c2)[C@H]1c1ccc(OC)c(OS(N)(=O)=O)c1 [Compound 26, (S)-2-methoxy-5-(3-methylene-4-oxo-1-(3,4,5-trimethoxyphenyl)azetidin-2-yl)phenyl sulfamate], the melting point was 199 to 200 °C, the IC50 (Hela; [1]) was 0.224 µM and the IC50 (MDA-MB-231; [2]) was 0.24 µM. The IC50 (A2780; [3]) was 0.133 µM and the IC50 (SKOV3; [4]) was 0.177 µM.
For C=C1C(=O)N(c2cc(OC)c(OC)c(OC)c2)[C@H]1c1ccc(OC)c(OS(=O)(=O)CCN2C(=O)c3ccccc3C2=O)c1 [Compound 28, (S)-2-methoxy-5-(3-methylene-4-oxo-1-(3,4,5-trimethoxyphenyl)azetidin-2-yl)phenyl 2-(1,3-dioxoisoindolin-2-yl)ethanesulfonate], the melting point was 69 to 70 °C, the IC50 (Hela; [1]) was over 20 µM and the IC50 (MDA-MB-231; [2]) was over 20 µM. It also gave an IC50 (A2780; [3]) of 16.8 µM and an IC50 (SKOV3; [4]) of 13.3 µM.
C=C1C(=O)N(c2cc(OC)c(OC)c(OC)c2)[C@H]1c1ccc(OC)c(OS(=O)(=O)N2CCOCC2)c1 [Compound 29, (S)-2-methoxy-5-(3-methylene-4-oxo-1-(3,4,5-trimethoxyphenyl)azetidin-2-yl)phenyl morpholine-4-sulfonate] showed a melting point of 134 to 135 °C, an IC50 (Hela; [1]) of 19.3 µM and an IC50 (MDA-MB-231; [2]) of over 20 µM. The IC50 (A2780; [3]) was 12.9 µM and the IC50 (SKOV3; [4]) was 15.6 µM.
Work on C=C1C(=O)N(c2cc(OC)c(OC)c(OC)c2)[C@H]1c1ccc(OC)c(OS(=O)(=O)CCCC)c1 [Compound 31, (S)-2-methoxy-5-(3-methylene-4-oxo-1-(3,4,5-trimethoxyphenyl)azetidin-2-yl)phenyl butane-1-sulfonate] yielded a melting point of 99 to 100 °C, an IC50 (Hela; [1]) of 14 µM and an IC50 (MDA-MB-231; [2]) of 7.29 µM. It also gave an IC50 (A2780; [3]) of 5.32 µM and an IC50 (SKOV3; [4]) of 10.2 µM.
For C=C1C(=O)N(c2cc(OC)c(OC)c(OC)c2)[C@H]1c1ccc(OC)c(OC(=O)CNC(=O)OC(C)(C)C)c1 [Compound 34, (S)-2-methoxy-5-(3-methylene-4-oxo-1-(3,4,5-trimethoxyphenyl)azetidin-2-yl)phenyl 2-((tert-butoxycarbonyl)amino)acetate], the melting point was 88 to 89 °C, the IC50 (Hela; [1]) was 0.062 µM and the IC50 (MDA-MB-231; [2]) was 0.335 µM. The IC50 (A2780; [3]) was 0.24 µM and the IC50 (SKOV3; [4]) was 0.264 µM.
